Structures are written as SMILES.

This experiment concerns the target T1, sodium-proton exchanger of subtype 3 (NHE3) (Homo sapiens, UniProt P48764).
T1 construct: expressed in transfected cells
T1 sequence (P48764 26-834): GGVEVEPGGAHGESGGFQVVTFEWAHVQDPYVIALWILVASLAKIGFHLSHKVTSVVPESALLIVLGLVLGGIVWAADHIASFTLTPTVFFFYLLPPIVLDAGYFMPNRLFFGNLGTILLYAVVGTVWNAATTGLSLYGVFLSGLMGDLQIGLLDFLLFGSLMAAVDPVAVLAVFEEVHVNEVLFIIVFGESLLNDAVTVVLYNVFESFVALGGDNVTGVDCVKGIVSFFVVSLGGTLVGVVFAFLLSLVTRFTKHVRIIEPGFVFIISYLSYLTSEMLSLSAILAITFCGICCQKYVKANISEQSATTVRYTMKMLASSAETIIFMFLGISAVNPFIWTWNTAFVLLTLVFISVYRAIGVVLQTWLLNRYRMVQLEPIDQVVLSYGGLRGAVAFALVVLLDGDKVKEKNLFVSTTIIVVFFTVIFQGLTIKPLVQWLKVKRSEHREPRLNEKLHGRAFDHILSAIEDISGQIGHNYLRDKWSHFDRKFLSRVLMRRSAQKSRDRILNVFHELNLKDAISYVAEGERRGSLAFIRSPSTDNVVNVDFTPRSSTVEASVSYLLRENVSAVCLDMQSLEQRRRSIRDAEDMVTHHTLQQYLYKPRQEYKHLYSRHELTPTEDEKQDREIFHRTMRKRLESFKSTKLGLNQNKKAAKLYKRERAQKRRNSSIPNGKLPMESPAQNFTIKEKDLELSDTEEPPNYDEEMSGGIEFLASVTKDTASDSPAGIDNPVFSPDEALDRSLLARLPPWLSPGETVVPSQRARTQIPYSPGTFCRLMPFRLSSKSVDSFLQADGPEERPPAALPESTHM
The experiment is described as follows: Recovery of intracellular pH (pHi) after acidification in LAP1 cells stably expressing NHE3 (BCECF fluorescence, FLIPR). The settings on record: LAP1 cells stably expressing NHE3; pH recovery after acidification; range 1 is % inhibition at 10 μM; read-out: Activity range (inhibitory effect on NHE3). Format: cell-based.
Turning to `COc1cccc(F)c1O[C@@H]1c2ccccc2C[C@H]1N1CCC(N)C1` (mixture of isomers) [Example 266, 1-[rac-trans-(1,2)-1-(2-fluoro-6-methoxyphenoxy)indan-2-yl]pyrrolidin-3-ylamine], the IC50 is 1000 to 10000 nM.

`Cc1nnc(C)n1-c1ccc(O[C@H]2c3cc(Cl)ccc3C[C@@H]2N2CC[C@@H](F)C2)c(Cl)c1` [Example 558, 4-{3-chloro-4-[trans-(1S,2S)-6-chloro-2-((R)-3-fluoropyrrolidin-1-yl)indan-1-yloxy]phenyl}-3,5-dimethyl-4H-[1,2,4]triazole]: the IC50 was less than 1000 nM.

Turning to `NC(=O)Nc1cccc(O[C@@H]2c3ccccc3C[C@H]2N2CCC[C@H](N)C2)c1` (racemic) [Example 232, {3-[rac-trans-(1,2)-2-((S)-3-aminopiperidin-1-yl)indan-1-yloxy]phenyl}urea], the IC50 lay in the range of 1000 to 10000 nM.

For `Cc1nnc(C)n1-c1ccc(O[C@H]2c3cc(Cl)cc(Cl)c3C[C@@H]2N2CC[C@@H](F)C2)cc1` [Example 561, 4-{4-[trans-(1S,2S)-4,6-dichloro-2-((R)-3-fluoropyrrolidin-1-yl)indan-1-yloxy]phenyl}-3,5-dimethyl-4H-[1,2,4]triazole], the IC50 was less than 1000 nM.

Consider `Fc1ccc(O[C@H]2c3ccccc3C[C@@H]2N2CCCC2)c(-c2ccn[nH]2)c1` [Example 575, 5-[5-fluoro-2-(trans-(1S,2S)-2-pyrrolidin-1-ylindan-1-yloxy)phenyl]-1H-pyrazole], for which the inhibition at 10 µM fell in the range of 20 to 50%.

Consider `CS(=O)(=O)c1ccc(O[C@H]2c3ccccc3C[C@@H]2NCC2CCCC2)cc1` (racemic) [Example 705, Cyclopentylmethyl-[rac-trans-(1,2)-1-(4-methanesulfonyl-phenoxy)-indan-2-yl]-amine], for which the IC50 lay within 1000 to 10000 nM.

Consider `N[C@@H]1CCCN([C@H]2CCc3ccccc3[C@@H]2Oc2cccc3[nH]nnc23)C1` (racemic) [Example 29, (R)-1-[rac-trans-(1,2)-1-(1H-benzotriazol-4-yloxy)-1,2,3,4-tetrahydronaphthalen-2-yl]piperidin-3-ylamine], for which the IC50 was 1000 to 10000 nM.

With `CS(=O)(=O)c1ccc(O[C@H]2c3cc(Cl)cc(Cl)c3C[C@@H]2N2CCC3(CCNC3)C2)cc1` (mixture of isomers) [Example 378, 2-[trans-(1S,2S)-4,6-dichloro-1-(4-methanesulfonylphenoxy)indan-2-yl]-2,7-diaza-spiro[4.4]nonane], the IC50 is less than 1000 nM.

For the compound `CN(C)S(=O)(=O)c1ccc(OC2c3ccccc3CC2N2CCC[C@@H](N)C2)c(Cl)c1Cl` (mixture of isomers) [Example 520, 4-[rac-trans-(1,2)-2-((R)-3-aminopiperidin-1-yl)indan-1-yloxy]-2,3-dichloro-N,N-dimethylbenzenesulfonamide], the IC50 is less than 1000 nM.

With `CC(=O)Nc1cccc(OC2c3ccccc3CC2N2CC[C@@H](O)C2)c1` (mixture of isomers) [Example 681, N-{3-[rac-trans-(1,2)-2-((R)-3-hydroxypyrrolidin-1-yl)indan-1-yloxy]phenyl}acetamide], the IC50 fell in the range of 1000 to 10000 nM.

For `N[C@H]1CCCN([C@H]2CCc3ccccc3[C@@H]2Oc2ccc(C(F)(F)F)cc2)C1` (racemic) [Example 186, (S)-1-[rac-trans-(1,2)-1-(4-trifluoromethylphenoxy)-1,2,3,4-tetrahydronaphthalen-2-yl]piperidin-3-ylamine], the inhibition at 10 µM lay in the range of 20 to 50%.

As for `NS(=O)(=O)c1ccc(O[C@@H]2c3ccccc3C[C@H]2NC2CCCCCC2)c(F)c1` (racemic) [Example 713, 4-(rac-trans-(1,2)-2-Cycloheptylamino-indan-1-yloxy)-3-fluoro-benzenesulfonamide], the IC50 lay in the range of 1000 to 10000 nM.

For the compound `N#Cc1ccc(O[C@@H]2c3ccccc3C[C@H]2N2CCC(CN)C2)cc1Cl` (mixture of isomers) [Example 540, 4-[rac-trans-(1,2)-2-(3-aminomethylpyrrolidin-1-yl)indan-1-yloxy]-2-chlorobenzonitrile], the IC50 lay in the range of 1000 to 10000 nM.

`N[C@@H]1CCCN([C@@H]2Cc3ccccc3[C@H]2Oc2ccc(Br)cc2-c2cc[nH]n2)C1` (racemic) [Example 118, (R)-1-{rac-trans-(1,2)-1-[4-bromo-2-(1H-pyrazol-3-yl)phenoxy]indan-2-yl}piperidin-3-ylamine]: the IC50 lay in the range of 1000 to 10000 nM.

As for `CCN(CC)[C@@H]1Cc2ccccc2[C@H]1Oc1ccc2sc(C)nc2c1` (racemic) [Example 625, Diethyl-[rac-trans-(1,2)-1-(2-methylbenzothiazol-5-yloxy)indan-2-yl]amine], the IC50 was 1000 to 10000 nM.

On to `Fc1ccc(O[C@H]2c3ccccc3CC[C@@H]2N2CCOCC2)c2ncccc12` (racemic) [Example 586, 5-fluoro-8-(rac-trans-(1,2)-2-morpholin-4-yl-1,2,3,4-tetrahydronaphthalen-1-yloxy)quinoline], for which the inhibition at 10 µM lay within 20 to 50%.

As to `N[C@@H]1CCCN([C@H]2CCc3ccccc3[C@@H]2Oc2ccc3ccncc3c2)C1` (racemic) [Example 84, (R)-1-[rac-trans-(1,2)-1-(isoquinolin-7-yloxy)-1,2,3,4-tetrahydronaphthalen-2-yl]piperidin-3-ylamine], the IC50 was less than 1000 nM.

With `N[C@H]1CCCN([C@@H]2Cc3ccccc3[C@H]2Oc2cccc(N3CCNCC3)c2)C1` (racemic) [Example 169, (S)-1-[rac-trans-(1,2)-1-(3-piperazin-1-ylphenoxy)indan-2-yl]piperidin-3-ylamine], the IC50 is less than 1000 nM.

In the case of `CN1CC(=O)N(c2ccc(Cl)c(O[C@H]3c4cc(Cl)cc(F)c4C[C@@H]3N3CC[C@@H](O)C3)c2)C1=O` [Example 435, 3-{4-chloro-3-[(1S,2S)-6-chloro-4-fluoro-2-((R)-3-hydroxypyrrolidin-1-yl)indan-1-yloxy]phenyl}-1-methylimidazolidine-2,4-dione], the IC50 was in the range of 1000 to 10000 nM.

On to `NCC1CCN([C@@H]2Cc3ccccc3[C@H]2Oc2cccc(N3CCNCC3)c2)CC1` (racemic) [Example 616, C-{1-[rac-trans-(1,2)-1-(3-piperazin-1-ylphenoxy)indan-2-yl]piperidin-4-yl}methylamine], for which the IC50 was 1000 to 10000 nM.

With `N[C@H]1CCCN([C@H]2CCc3ccccc3[C@@H]2Oc2ccccc2Br)C1` (racemic) [Example 151, (S)-1-[rac-trans-(1,2)-1-(2-bromophenoxy)-1,2,3,4-tetrahydronaphthalen-2-yl]piperidin-3-ylamine], the inhibition at 10 µM is 20 to 50%.

On to `Cc1ccc(F)c(O[C@H]2c3ccccc3CC[C@@H]2N2CCC[C@@H](N)C2)c1` (racemic) [Example 43, (R)-1-[rac-trans-(1,2)-1-(2-fluoro-5-methylphenoxy)-1,2,3,4-tetrahydronaphthalen-2-yl]piperidin-3-ylamine], for which the inhibition at 10 µM lay in the range of 20 to 50%.

For the compound `c1ccc2c(c1)C[C@@H](N1C[C@H]3CNC[C@H]3C1)[C@@H]2Oc1cccc2[nH]ccc12` (racemic) [Example 504, 4-[rac-trans-(1,2)-2-(Hexahydropyrrolo[3,4-c]pyrrol-2-yl)indan-1-yloxy]-1H-indole], the IC50 fell in the range of 1000 to 10000 nM.

On to `CS(=O)(=O)c1ccc(O[C@H]2c3ccccc3CC[C@@H]2N2CCC[C@@H](N)C2)cc1` (racemic) [Example 73, (R)-1-[rac-trans-(1,2)-1-(4-methanesulfonylphenoxy)-1,2,3,4-tetrahydronaphthalen-2-yl]piperidin-3-ylamine], for which the IC50 was less than 1000 nM.

Values taken from US8822449B2, “Substituted aminoindanes and analogs thereof, and the pharmaceutical use thereof” (Sanofi, priority 2008, dated 2014).
